Numbered stars: 1 amine (or outer) side, 2 acyl side, 3 side chain; on linkers, the order of the positions; unused ones are H or OH. Bridge positions count the residues as written; N and C are the ends. Square brackets hold non-standard residues; d marks the D form. Peptide text beside a SMILES is read from it. I, II: the chains in the order shown. 2Nal = N[C@@H](Cc1ccc2ccccc2c1)C(=O)O; Diglycolyl = O=C(COCC(=O)[*:2])[*:1]; NMeR = CN[C@@H](CCCNC(=N)N)C(=O)O; Pen = CC(C)(S)[C@H](N)C(=O)O
Tests used:
α4β1 = α4β1 (Homo sapiens, UniProt P05556+P13612); assay: α4β1-VCAM Cell Adhesion Assay (Jurkat E6.1 human cells); format: cell-based; design: host or cells: Jurkat E6.1 human T cells; details: Table 4-B; read-out: Cell Adhesion α4β1 IC50
Sequence of α4β1 (P13612 34-1032): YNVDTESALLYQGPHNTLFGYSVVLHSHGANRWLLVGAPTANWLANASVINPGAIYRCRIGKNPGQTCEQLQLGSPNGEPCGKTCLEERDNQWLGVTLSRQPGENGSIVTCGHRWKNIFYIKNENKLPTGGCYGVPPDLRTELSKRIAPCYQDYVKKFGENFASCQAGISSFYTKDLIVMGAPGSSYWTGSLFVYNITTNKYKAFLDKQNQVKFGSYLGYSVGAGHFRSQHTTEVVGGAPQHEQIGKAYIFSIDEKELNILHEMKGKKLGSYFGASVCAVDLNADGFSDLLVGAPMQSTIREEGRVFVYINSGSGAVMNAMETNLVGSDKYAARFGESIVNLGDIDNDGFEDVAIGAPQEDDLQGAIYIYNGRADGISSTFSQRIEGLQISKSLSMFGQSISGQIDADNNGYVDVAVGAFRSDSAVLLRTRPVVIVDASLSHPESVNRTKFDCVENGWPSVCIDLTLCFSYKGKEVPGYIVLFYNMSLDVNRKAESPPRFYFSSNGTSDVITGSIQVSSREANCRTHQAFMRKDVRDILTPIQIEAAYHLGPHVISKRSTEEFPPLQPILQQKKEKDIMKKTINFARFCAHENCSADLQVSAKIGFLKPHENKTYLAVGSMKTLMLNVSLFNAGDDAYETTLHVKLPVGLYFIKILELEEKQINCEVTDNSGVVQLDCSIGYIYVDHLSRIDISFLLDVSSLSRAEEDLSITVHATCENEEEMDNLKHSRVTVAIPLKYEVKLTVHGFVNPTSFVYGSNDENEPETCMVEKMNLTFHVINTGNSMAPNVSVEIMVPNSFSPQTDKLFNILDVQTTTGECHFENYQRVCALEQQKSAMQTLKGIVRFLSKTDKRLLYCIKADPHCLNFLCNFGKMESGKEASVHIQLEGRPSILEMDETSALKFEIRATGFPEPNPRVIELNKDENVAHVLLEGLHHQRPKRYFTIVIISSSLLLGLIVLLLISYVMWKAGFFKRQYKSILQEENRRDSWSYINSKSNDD
Sequence of α4β1 (P05556 21-798): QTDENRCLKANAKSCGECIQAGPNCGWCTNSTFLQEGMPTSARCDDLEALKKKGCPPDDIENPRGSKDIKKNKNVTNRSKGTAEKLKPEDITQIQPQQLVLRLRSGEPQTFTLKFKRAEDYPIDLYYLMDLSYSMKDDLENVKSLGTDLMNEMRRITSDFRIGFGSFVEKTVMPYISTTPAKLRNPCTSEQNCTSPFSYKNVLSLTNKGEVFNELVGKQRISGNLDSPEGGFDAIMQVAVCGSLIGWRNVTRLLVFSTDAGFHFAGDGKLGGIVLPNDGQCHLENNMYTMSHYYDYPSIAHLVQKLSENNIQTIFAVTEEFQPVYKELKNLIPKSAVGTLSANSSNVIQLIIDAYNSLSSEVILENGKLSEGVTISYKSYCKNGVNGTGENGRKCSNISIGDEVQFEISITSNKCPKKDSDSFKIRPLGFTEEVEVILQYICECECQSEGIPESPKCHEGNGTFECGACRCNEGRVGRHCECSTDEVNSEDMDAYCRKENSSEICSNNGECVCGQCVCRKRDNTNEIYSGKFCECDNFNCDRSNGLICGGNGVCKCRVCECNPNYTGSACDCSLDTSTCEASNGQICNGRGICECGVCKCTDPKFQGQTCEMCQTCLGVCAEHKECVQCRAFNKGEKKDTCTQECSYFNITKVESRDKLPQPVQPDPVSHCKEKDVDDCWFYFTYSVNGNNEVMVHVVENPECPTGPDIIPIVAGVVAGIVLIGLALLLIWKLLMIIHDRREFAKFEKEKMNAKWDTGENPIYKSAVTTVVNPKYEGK
Description: Jurkat E6.1 human cells (Sigma #88042803) were cultured in RPMI 1640 HEPES medium (Invitrogen #22400-089) supplemented with 10% serum (Fetal Bovine Serum, Invitrogen #16140-071), 1 mM sodium pyruvate (Invitrogen #11360-070), 2 mM L-glutamine (Invitrogen #25030-081) and Penicillin-Streptomycin (Invitrogen #15140-122) at 100 units of penicillin and 100 μg of streptomycin per ml. The cells were washed two times in DMEM medium (ATCC #30-2002) supplemented with 0.1% BSA, 10 mM HEPES pH 7 and 1 mM MnCl2. The cells were re-suspended in supplemented DMEM medium at a density of 4×10^6 cells/ml.
A Nunc MaxiSorp plate was coated with rh VCAM-1/CD106 Fc chimera (R&D #862-VC) at 400 ng per well in 50 ul per well in 1×PBS and incubated at 4° C. overnight. The solution was then removed by shaking, blocked with 250 ul per well PBS containing 1% BSA, and incubated at 37° C. for 1 hr. The solution was removed by shaking. Peptides were diluted by serial dilution in a final volume of 50 ul per well (2× concentration). To each well, 50 ul of cells (200,000 cells) were added and the plate was incubated at 37° C., 5% CO2 for 30-45 min to allow cell adhesion. The wells were washed manually three times (100 ul per wash) with supplemented DMEM. After the final wash, 100 ul/well of supplemented DMEM and 10 ul/well of MTT reagent (ATTC cat#30-1010K) were added. The plate was incubated at 37° C., 5% CO2 for 2-3 hrs until a purple precipitate was visible. 100 ul of Detergent Reagent (ATTC cat#30-1010K) was added to each well. The plate was covered from the light, wrapped in Parafilm to prevent evaporation, and left overnight at room temperature in the dark. The plate was shaken for 5 min and the absorbance at 570 nm was measured. To calculate the dose response, the absorbance value of control wells not containing cells was subtracted from each test well.

[1] = Dithiothreitol (DTT) Redox Stability Assay; format: physicochemical; details: Table 4-C, t1/2, 0.5 mM DTT
Description: For each peptide tested, the DTT stability assay was conducted by adding 5 μl of a 10 mM peptide stock solution in DMSO to 1 ml of 100 mM Tris-Cl, pH 7.5 (final peptide concentration is 50 μM). At time 0 min, 5 ul of a freshly thawed 100 mM DTT solution was added to the incubation tube containing the peptide, such that the final DTT concentration was 0.5 mM. The reactions were incubated at room temperature. At different time points up to 120 minutes (20 min, 40 min, 80 min, 120 min), 50 ul aliquots were removed, and the reaction was quenched by adding 10 μl of 5M acetic acid. To measure disappearance of the parent peptide, the quenched samples (30 μl) were analyzed by reverse phase HPLC and UV absorbance at 220 nm. The fraction oxidized remaining was graphed versus time, and half-lives were calculated by fitting to a first-order exponential decay equation using Excel.

α4β7 = biological target: T1, α4β7 (Mus musculus, UniProt P26011+Q00651); assay: α4β7 Cell Adhesion Assay (Mouse), TK1 cells; format: cell-based; details: Table 4-B; read-out: Cell Adhesion α4β7 Mouse IC50
T1 construct: host or cells: TK1 mouse T cells
T1 sequence (Q00651 34-1039 limits assumed): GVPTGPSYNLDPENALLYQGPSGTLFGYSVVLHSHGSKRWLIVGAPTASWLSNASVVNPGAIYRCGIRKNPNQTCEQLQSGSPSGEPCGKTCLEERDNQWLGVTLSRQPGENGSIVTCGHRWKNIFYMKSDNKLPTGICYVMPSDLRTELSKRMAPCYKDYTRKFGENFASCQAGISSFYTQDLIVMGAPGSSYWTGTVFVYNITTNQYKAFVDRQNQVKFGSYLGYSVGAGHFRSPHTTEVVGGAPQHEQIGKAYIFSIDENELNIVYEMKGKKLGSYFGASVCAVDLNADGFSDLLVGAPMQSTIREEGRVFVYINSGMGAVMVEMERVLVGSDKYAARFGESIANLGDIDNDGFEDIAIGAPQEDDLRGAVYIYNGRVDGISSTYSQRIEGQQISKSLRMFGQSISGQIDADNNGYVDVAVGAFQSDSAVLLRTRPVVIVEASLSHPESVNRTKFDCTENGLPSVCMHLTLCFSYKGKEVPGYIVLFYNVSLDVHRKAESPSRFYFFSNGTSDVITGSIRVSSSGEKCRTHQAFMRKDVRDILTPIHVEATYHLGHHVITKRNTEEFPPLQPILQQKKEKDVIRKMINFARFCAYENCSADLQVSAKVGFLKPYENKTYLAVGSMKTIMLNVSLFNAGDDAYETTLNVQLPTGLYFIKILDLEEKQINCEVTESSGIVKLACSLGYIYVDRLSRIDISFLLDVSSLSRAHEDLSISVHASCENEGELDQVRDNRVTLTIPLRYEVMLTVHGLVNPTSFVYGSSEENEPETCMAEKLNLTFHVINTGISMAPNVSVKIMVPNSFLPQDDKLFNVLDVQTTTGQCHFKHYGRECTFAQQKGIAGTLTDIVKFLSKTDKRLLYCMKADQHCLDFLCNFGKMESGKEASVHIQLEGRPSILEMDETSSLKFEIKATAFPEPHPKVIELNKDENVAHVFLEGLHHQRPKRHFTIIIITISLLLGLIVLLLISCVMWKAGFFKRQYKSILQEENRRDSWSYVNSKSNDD
T1 sequence (P26011 20-806): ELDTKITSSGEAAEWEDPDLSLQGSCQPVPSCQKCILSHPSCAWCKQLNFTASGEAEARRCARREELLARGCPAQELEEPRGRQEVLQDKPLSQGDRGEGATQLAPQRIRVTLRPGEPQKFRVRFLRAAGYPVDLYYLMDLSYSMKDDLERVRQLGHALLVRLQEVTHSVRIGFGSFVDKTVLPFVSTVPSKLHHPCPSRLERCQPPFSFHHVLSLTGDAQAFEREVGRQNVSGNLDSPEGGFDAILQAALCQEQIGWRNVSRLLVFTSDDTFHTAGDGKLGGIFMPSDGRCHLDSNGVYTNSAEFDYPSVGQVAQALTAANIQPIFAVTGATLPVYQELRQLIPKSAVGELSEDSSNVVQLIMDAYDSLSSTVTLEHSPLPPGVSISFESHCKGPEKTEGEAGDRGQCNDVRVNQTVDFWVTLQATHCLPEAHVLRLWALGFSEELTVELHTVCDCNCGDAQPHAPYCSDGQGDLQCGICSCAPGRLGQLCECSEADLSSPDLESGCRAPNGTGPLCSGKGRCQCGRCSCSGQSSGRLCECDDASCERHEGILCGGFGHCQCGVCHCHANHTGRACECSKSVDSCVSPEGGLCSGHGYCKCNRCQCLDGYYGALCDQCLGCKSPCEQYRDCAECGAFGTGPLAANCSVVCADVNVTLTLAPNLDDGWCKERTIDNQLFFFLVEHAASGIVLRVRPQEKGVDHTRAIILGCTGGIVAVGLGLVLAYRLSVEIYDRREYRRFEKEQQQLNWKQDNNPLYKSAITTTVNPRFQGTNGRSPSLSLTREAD
Outline: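 Mouse TK1 cells in DMEM with 0.1% BSA, 10 mM HEPES pH 7 and 1 mM MnCl2 were allowed to adhere for 30-45 min at 37 °C to plates coated with recombinant human MAdCAM-1 Fc (200 ng/well) in the presence of serially diluted peptides. Adherent cells were quantified by MTT absorbance at 570 nm, with no-cell background subtracted for dose response.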

Plasma Stability Assay = format: in vitro ADME; details: rat, Table 4-C, t1/2
Description: 0.5 mL of rat plasma (one tube per peptide, volume depends on how many time points are to be collected, 50 μL per time point) was added to each well of a 96-well polypropylene plate, and the tubes were incubated in a heated water bath, preset to 37° C. with gentle shaking. 1 μL of 10 mM peptide stock solution was added to each tub, and then 200 μL of Acetonitrile w/0.1% Formic Acid was added to each tube (1:4). Samples were collected at the following time points: 0, 10, 30, 45, 60, 120, 180 mins. When all time points were collected, the plate was centrifuged at 5000 rpm for 5 mins. LCM analysis was performed by pipetting 100 μL of each sample to appropriate well of a 96-well deep plate. 100 μL of an internal standard peptide (1 ug/mL) was added in Mobile Phase A to each well. The plate was vortexed and injected

CC(=O)N[C@@H]1C(=O)N(C)[C@@H](CCCNC(=N)N)C(=O)N[C@@H](CO)C(=O)N[C@@H](CC(=O)O)C(=O)N[C@@H]([C@@H](C)O)C(=O)N[C@@H](CC(C)C)C(=O)N[C@H](C(=O)N[C@@H](Cc2ccc3ccccc3c2)C(=O)N[C@@H](CCC(=O)O)C(=O)N[C@H](CCCCN)C(N)=O)C(C)(C)SSC1(C)C [compound 210, Ac-Pen-N-Me-R-S-D-T-L-Pen-2-Nal-E-k-NH2] (Ac-[Pen][NMeR]SDTL[Pen][2Nal]E[dK]-NH2; disulfide 1-7)
IC50 (α4β1): > 100 µM | DTT Min [1]: >120 min

CC(=O)N[C@@H]1C(=O)N[C@@H](CCCNC(=N)N)C(=O)N[C@@H](CO)C(=O)N[C@@H](CC(=O)O)C(=O)N[C@@H]([C@@H](C)O)C(=O)N[C@@H](CC(C)C)C(=O)N[C@H](C(=O)N[C@H](CCCCNC(=O)COCC(=O)NCCCC[C@@H](NC(=O)[C@@H]2CSSC(C)(C)[C@H](NC(C)=O)C(=O)N[C@@H](CCCNC(=N)N)C(=O)N[C@@H](CO)C(=O)N[C@@H](CC(=O)O)C(=O)N[C@@H]([C@@H](C)O)C(=O)N[C@@H](CC(C)C)C(=O)N2)C(N)=O)C(N)=O)CSSC1(C)C [compound 207, (Ac-Pen-R-S-D-T-L-C-k-NH2)2-DIG] (I: Ac-[Pen]RSDTLC[dK]-NH2 / II: Ac-[Pen]RSDTLC[dK]-NH2; disulfide I:1-I:7, II:1-II:7 (inferred); linker I:8-II:8 via Diglycolyl (inferred))
DTT Min [1]: 35 min

CC(=O)N[C@H]1CSSC[C@@H](C(=O)NCC(=O)N[C@@H](CCC(=O)O)C(N)=O)NC(=O)[C@H](CC(C)C)NC(=O)[C@H]([C@@H](C)O)NC(=O)[C@H](CC(=O)O)NC(=O)[C@H](CO)NC(=O)[C@H](CCCNC(=N)N)N(C)C1=O [compound 198, Ac-C-N-Me-R-S-D-T-L-C-G-E-NH2] (Ac-C[NMeR]SDTLCGE-NH2; disulfide 1-7)
IC50 (α4β1): > 100 µM | DTT Min [1]: 4.5 min

CC(=O)N[C@@H]1C(=O)N(C)[C@@H](CCCNC(=N)N)C(=O)N[C@@H](CO)C(=O)N[C@@H](CC(=O)O)C(=O)N[C@@H]([C@@H](C)O)C(=O)N[C@@H](CC(C)C)C(=O)N[C@H](C(=O)N[C@@H](Cc2ccc3ccccc3c2)C(=O)N[C@@H](CCC(=O)O)C(=O)N[C@H](CCCCNC(=O)COCC(=O)NCCCC[C@@H](NC(=O)[C@H](CCC(=O)O)NC(=O)[C@H](Cc2ccc3ccccc3c2)NC(=O)[C@H]2NC(=O)[C@H](CC(C)C)NC(=O)[C@H]([C@@H](C)O)NC(=O)[C@H](CC(=O)O)NC(=O)[C@H](CO)NC(=O)[C@H](CCCNC(=N)N)N(C)C(=O)[C@@H](NC(C)=O)C(C)(C)SSC2(C)C)C(N)=O)C(N)=O)C(C)(C)SSC1(C)C [compound 212, (Ac-Pen-N-Me-R-S-D-T-L-Pen-2-Nal-E-k-NH2)2-DIG] (I: Ac-[Pen][NMeR]SDTL[Pen][2Nal]E[dK]-NH2 / II: Ac-[Pen][NMeR]SDTL[Pen][2Nal]E[dK]-NH2; disulfide I:1-I:7, II:1-II:7 (inferred); linker I:10-II:10 via Diglycolyl (inferred))
IC50 (α4β1): > 100 µM | DTT Min [1]: >120 min

CC(=O)N[C@H]1CSSC[C@@H](C(=O)NCC(=O)N[C@@H](CCC(=O)O)C(N)=O)NC(=O)[C@H](CC(C)C)NC(=O)[C@H]([C@@H](C)O)NC(=O)[C@H](CC(=O)O)NC(=O)[C@H](CO)NC(=O)[C@H](CCCNC(=N)N)NC1=O [compound 194, Ac-C-R-S-D-T-L-C-G-E-NH2] (Ac-CRSDTLCGE-NH2; disulfide 1-7)
DTT Min [1]: 5.5 min

CC(=O)N[C@@H]1C(=O)N(C)[C@@H](CCCNC(=N)N)C(=O)N[C@@H](CO)C(=O)N[C@@H](CC(=O)O)C(=O)N[C@@H]([C@@H](C)O)C(=O)N[C@@H](CC(C)C)C(=O)N[C@H](C(=O)N[C@@H](Cc2c[nH]c3ccccc23)C(=O)N[C@H](CCCCN)C(N)=O)C(C)(C)SSC1(C)C [compound 208, Ac-Pen-N-Me-R-S-D-T-L-Pen-W-k-NH2] (Ac-[Pen][NMeR]SDTL[Pen]W[dK]-NH2; disulfide 1-7)
DTT Min [1]: >120 min

CC(=O)N[C@@H]1C(=O)N(C)[C@@H](CCCNC(=N)N)C(=O)N[C@@H](CO)C(=O)N[C@@H](CC(=O)O)C(=O)N[C@@H]([C@@H](C)O)C(=O)N[C@@H](CC(C)C)C(=O)N[C@H](C(=O)N[C@@H](Cc2c[nH]c3ccccc23)C(=O)N[C@H](CCC(=O)O)C(=O)N[C@H](CCCCNC(=O)COCC(=O)NCCCC[C@@H](NC(=O)[C@@H](CCC(=O)O)NC(=O)[C@H](Cc2c[nH]c3ccccc23)NC(=O)[C@H]2NC(=O)[C@H](CC(C)C)NC(=O)[C@H]([C@@H](C)O)NC(=O)[C@H](CC(=O)O)NC(=O)[C@H](CO)NC(=O)[C@H](CCCNC(=N)N)N(C)C(=O)[C@@H](NC(C)=O)C(C)(C)SSC2(C)C)C(N)=O)C(N)=O)C(C)(C)SSC1(C)C [compound 211, (Ac-Pen-N-Me-R-S-D-T-L-Pen-W-e-k-NH2)2-DIG] (I: Ac-[Pen][NMeR]SDTL[Pen]W[dE][dK]-NH2 / II: Ac-[Pen][NMeR]SDTL[Pen]W[dE][dK]-NH2; disulfide I:1-I:7, II:1-II:7 (inferred); linker I:10-II:10 via Diglycolyl (inferred))
IC50 (α4β1): > 100 µM | IC50 (α4β7): 0.0073 µM | DTT Min [1]: >120 min

CC(=O)N[C@H]1CSSC[C@@H](C(=O)NCC(=O)N[C@@H](CCC(=O)O)C(=O)N[C@@H](CCCCN)C(=O)O)NC(=O)[C@H](CC(C)C)NC(=O)[C@H]([C@@H](C)O)NC(=O)[C@H](CC(=O)O)NC(=O)[C@H](CO)NC(=O)[C@H](CCCNC(=N)N)N(C)C1=O [compound 199, Ac-C-N-Me-R-S-D-T-L-C-G-E-K-OH] (Ac-C[NMeR]SDTLCGEK-OH; disulfide 1-7)
half-life at 20 μM (Plasma Stability Assay): 1.35 h

CC(=O)N[C@H]1CSSC[C@@H](C(=O)NCC(=O)N[C@@H](CCC(=O)O)C(=O)N[C@@H](CCCCNC(=O)COCC(=O)NCCCC[C@H](NC(=O)[C@H](CCC(=O)O)NC(=O)CNC(=O)[C@@H]2CSSC[C@H](NC(C)=O)C(=O)N(C)[C@@H](CCCNC(=N)N)C(=O)N[C@@H](CO)C(=O)N[C@@H](CC(=O)O)C(=O)N[C@@H]([C@@H](C)O)C(=O)N[C@@H](CC(C)C)C(=O)N2)C(=O)O)C(=O)O)NC(=O)[C@H](CC(C)C)NC(=O)[C@H]([C@@H](C)O)NC(=O)[C@H](CC(=O)O)NC(=O)[C@H](CO)NC(=O)[C@H](CCCNC(=N)N)N(C)C1=O [compound 201, (Ac-C-N-Me-R-S-D-T-L-C-G-E-K-OH)2-DIG] (I: Ac-C[NMeR]SDTLCGEK-OH / II: Ac-C[NMeR]SDTLCGEK-OH; disulfide I:1-I:7, II:1-II:7 (inferred); linker I:10-II:10 via Diglycolyl (inferred))
half-life at 20 μM (Plasma Stability Assay): 2.02 h

CC(=O)N[C@H]1CSSC[C@@H](C(N)=O)NC(=O)[C@H](CC(C)C)NC(=O)[C@H]([C@@H](C)O)NC(=O)[C@H](CC(=O)O)NC(=O)[C@H](CO)NC(=O)[C@H](CCCNC(=N)N)NC1=O [compound 195, Ac-C-R-S-D-T-L-C-NH2] (Ac-CRSDTLC-NH2; disulfide 1-7)
DTT Min [1]: 4.7 min
